Measured values taken from paper PMC10882993, “Protecting the Achilles heel: three FolE_I-type GTP-cyclohydrolases needed for full growth of metal-resistant Cupriavidus metallidurans under a variety of conditions” (Journal of Bacteriology, 2024).
≈ marks a conversion by molar mass, not a printed value. Where two headings read alike, the source gives them in different places.

What was measured:
Test in all cases: microbe, parasite or virus in culture
[1] = system: T1, Cupriavidus metallidurans AE104; design: growth inhibition of bacterial culture by oxidative stress agents; conditions: read-out: PQ
T1 construct: AE104

[2] = system: T1, Cupriavidus metallidurans AE104; design: growth inhibition of bacterial culture by metal chelators
From the text: EDTA, membrane-permeant TPEN, and DIP complex divalent transition metal cations with similar stability constants, EDTA with Cu > Ni > Zn > Co > Fe = Mn, TPEN with a similar ranking but higher stability constants, and DIP with Cu = Fe > Zn in an inverted arrangement ([43][–][45]). The ∆folE single and double mutants grew with only a slight delay compared to the parental strain AE104 in the presence of TPEN (Fig. S8), and the IC50 values for the ∆folE single mutants and TPEN were not different from that of the parent AE104 (Table S8). When the gene for the zinc importer ZupT was deleted, the IC50 values of all strains decreased below 0.5 µM TPEN, again without differences between the mutants and the ∆zupT parent (Fig. S8C). […] Due to large deviations, not much influence of TPEN on the growth of the ∆folE mutants could be measured. […] In contrast, TPEN mediated an overall decrease of metal availability. In the presence of DIP, growth of both ∆folE_IB mutants of strain AE104 was similar to their parent, but the ∆folE_IA mutant was more sensitive to DIP (Fig. S9A) with a decrease in the IC50 value from about 60 µM to 36 ± 7 µM (Table S8). The zinc content of the four strains in the presence of 25 µM DIP was similar, but the cobalt content was decreased (Table S6). […]

[3] = system: T1, Cupriavidus metallidurans AE104; design: growth inhibition of bacterial culture, final turbidity in TMM medium; conditions: read-out: TMP,
Procedure: Trimethoprim and sulfonamide interfere with THF biosynthesis in steps downstream of the reaction catalyzed by the FolE_I-type enzymes. Neither substance induced an up-regulation of folE_IB1 or folE_IA (Table S2), but TMP did induce expression of pfl-glyA (Table S1). The ∆folE_IB1 mutant of strain AE104 was less resistant to trimethoprim than its wild-type parent or the other two ∆folE deletion mutants (Fig. 7A), and the IC50 for trimethoprim decreased from 4 to 3.3 mg/L (Table S9). Resistance to trimethoprim was not affected in the ∆folE_IB2 ∆folE_IA mutant with FolE_IB1 only, but it was in the two double mutants that carried a ∆folE_IB1 deletion (Fig. 7). Resistance to TMP decreased in the ∆zupT ∆folE_IB1 but not in the ∆zur ∆folE_IB1 mutant (Fig. 7B and C). […] Since TMP decreased the concentration of fTHF as shown by the up-regulation of pfl-glyA-lacZ expression, an increased folate production was needed to counteract inhibition of a later step of folate biosynthesis by TMP. This explains the need for the activity of both FolE_IA and FolE_IB1 to resist TMP inhibition. […] Final turbidity of C. metallidurans strains in medium zinc TMM containing varying concentrations of trimethoprim is shown for derivatives of strain AE104 single (panel A) and double (panel B) mutants, ∆zupT (panel C), and ∆zur single mutants (panel D). […]

For C[n+]1ccc(-c2cc[n+](C)cc2)cc1 [PQ, paraquat], which IC50 [1] is on record?
Its IC50 is 181 ± 17 µM.

For c1ccc(CN(CCN(Cc2ccccn2)Cc2ccccn2)Cc2ccccn2)nc1 [TPEN, N,N,N′,N′-tetrakis(2-pyridinylmethyl)-1,2-ethanediamine], which IC50 ([2]; read-out: TPEN) is on record?
Its IC50 is 1.1 ± 0.4 µM.

Which IC50 ([2]; read-out: DIP) does the source give for c1ccc(-c2ccccn2)nc1 [DIP, dipyridyl] here?
Its IC50 is 57 ± 4 µM.

How did the IC50 [3] turn out when COc1cc(Cc2cnc(N)nc2N)cc(OC)c1OC [TMP, trimethoprim] was run?
Its IC50 is 4 ± 0.2 mg/L (≈ 13.8 µM).
